Measured values taken from US8148392B2, “2-indolyl imidazo [4,5-d] phenanthroline derivatives and their use in the treatment of cancer” (Lorus Therapeutics Inc., priority 2005, dated 2012).

Columns and labels:
[1] = test system: CCRF-CEM leukemia cell line; assay: NCI DTP in vitro screen, CCRF-CEM; format: cell-based; settings: Homo sapiens
Protocol: For example, the following methodology, which is currently employed by the NCI, can be used to assess the GI50 of a candidate compound of Formula I in the selected cancer cell lines. Briefly, cell suspensions are diluted (5000-40,000 cells per well) and 100 μL of the diluted cell suspension is added into 96-well microtiter plates. Inoculates are allowed a preincubation period of 24 h at 37° C. for stabilization. Dilutions at twice the intended test concentration of the candidate compound are added at time zero in 100 μL aliquots to the microtiter plate wells. Test compounds are generally evaluated at five 10-fold dilutions. In routine testing, the highest well concentration is usually 10E-4 M, but this may be adjusted depending on the compound being tested. […] The cells are then assayed by using the sulforhodamine B assay (see, for example, Skehan, P., et al. (1990) JNCI, J. Natl. Cancer Inst. 82, 1107-1112; and Chen, S. F., et al. (1990) Proc. Am. Assoc. Cancer Res. 31, A2644) employing a plate reader which can be used to read the optical densities.
Compounds 2 and 3 were evaluated for their antiproliferative effects in a panel of 60 human cancer cell lines as part of the in vitro anticancer screening services provided by the DTP (Developmental Therapeutics Program) of the US National Cancer Institute (NCI).

p21 = p21 mRNA in HT-29 tumour xenografts, RT-PCR; format: in vivo, CD-1 female nude mice; settings: HT-29 xenograft, versus vehicle
Protocol: The ability of compound 3 to modulate expression of p21 in vivo was determined using the HT-29 colon tumour xenograft model as described in Example 26. The expression of p21 mRNA was analyzed by real-time polymerase chain reaction analysis using the comparative CT method as described in Example 30.

KLF4 = KLF4 binding to Cyclin D1 promoter, ChIP, HT-29; format: cell-based, human; settings: HT-29, ChIP
Protocol: Based on overlapping transcription factor binding sites on Cyclin D1 gene promoter region (FIG. 33A), increased binding of a negative regulator KLF4 may replace the binding of a positive regulator Sp1. In vivo KLF4 and Sp1 binding to Cyclin D1 promoter was shown by chromatin immuno-precipitation assay (ChIP) (FIG. 33B).
Chromatin immunoprecipitation (ChIP) was performed as follows. Cell lysates from HT-29 cells (5.5×10^5 cells in three 15 cm-culture plates in each experimental group) were prepared at the end of the indicated experiments, and ChIP assays were performed using anti-KLF4 and anti-Sp1 antibodies (Santa Cruz Biotechnology Inc.) and ChIP-ITTM kit (Active Motif, Carlsbad, Calif.) by following the manufacturer's instruction. The primers encompassing-231 to -92 region of Cyclin D1 promoter; 5′ primer (5′-CGGACTACAGGGGCAA-3′) [SEQ ID NO:1] and 3′ primer (5′-GCTCCAGGACTTTGCA-3′) [SEQ ID NO:2] were synthesized at Invitrogen.

HT-29 cells = assay: HT-29 cell proliferation (XTT) after knock-down of KLF4 gene by siRNA; format: cell-based, human; settings: HT-29, XTT
Protocol: Small interfering RNA (siRNA) transfection was performed as follows. Pre-designed MTF-1 siRNA (ID #115734) (Ambion, Austin, Tex.) was used to knockdown endogenous MTF-1 mRNA. Similarly, pre-designed KLF4 siRNA (ID #115492) (Ambion, Austin, Tex.) was used to knockdown endogenous KLF4 mRNA. A nonspecific, double-stranded RNA
was synthesized at Qiagen (Cambridge, Mass.) based on the sequence of an unrelated gene. HT-29 cells (3×10^5 cells in 35 mm-culture dishes) were transfected with indicated concentrations of siRNA or scrambled RNA control using Lipofectamine™ 2000 transfection reagent (Invitrogen) by following the manufacturer's instruction, for 6 hr. At the end of the incubation period, the transfection medium was supplemented with a complete growth medium and the cells were incubated at 37° C. for 24 hr before indicated experiments.

[2] = In vitro chelation of zinc ions, Zinquin fluorescence; format: physicochemical; settings: ZnCl2 2 μM in PBS, Zinquin 10 μM, 30 min
Protocol: To determine the chelation property of compound 3 with zinc ions in vitro, free available zinc ions were measured by spectrofluorometry using zinc-sensitive fluorescent dye Zinquin, following pre-incubation of ZnCl2 with different concentrations of compound 3 (FIG. 36). ZnCl2 2 μM was incubated with indicated concentrations of compound 3, in phosphate buffer saline (PBS), followed by addition of Zinquin, 10 μM final concentration for 30 min. Zinquin fluorescence upon zinc binding was measured in a Fluoroskan Ascent luminescence spectrofluorometer, at 364 nm excitation and 485 nm emission wavelengths.

MTF-1 = MTF-1 DNA-binding activity, EMSA, HT-29 nuclear extract; format: cell-based, human
Protocol: To verify the change in MTF-1 activity at earlier time of incubation, prior to the significant decrease in MTF-1 gene expression, MTF-1 nuclear translocation and DNA-binding activity was determined in nuclear extract of HT-29 cells treated with compound 3 for 4 hr, by electrophoretic mobility shift assay (EMSA) (FIG. 40B) as follows. HT-29 cells were treated with DMSO, 35 μM ZnCl2 (positive control) and 1 μM compound 3 for 4 hr. Nuclear protein was extracted and incubated with biotin-labeled MTF-1 binding oligonucleotide probes. The retarded mobility of labeled probe upon MTF-1 binding was observed as a band shift (FIG. 40B). […] In zinc-treated groups, 2 additional shift bands (open arrows) were observed (lane 3), indicating the increase in zinc-dependent MTF-1 activity. […] Excess unlabeled probes were added in lane 2, 4 and 6 to compete the labeled probes binding with MTF-1 in the nuclear extract, showing the specificity of MTF-1-binding shift bands in lane 1, 3 and 5, respectively.
HT-29 cells were treated with 35 μM ZnCl2 for 4 hr and the nuclear extract from zinc-treated cells (zinc-activated MTF-1) was treated with compound 3 in vitro and DNA-binding activity of MTF-1 to MRE sequence was assessed by electrophoretic mobility shift assay (EMSA) (Panomics, Redwood City, Calif.).
To examine inactivation of MTF-1 by compound 3 in the cells, HT-29 cells were treated with compound 3 for 1 to 4 hr and DNA-binding activity of MTF-1 in the nuclear extract was assessed by EMSA.

p21 protein = p21 protein in HT-29 total cell lysate, ELISA / Western blot; format: cell-based, human; settings: HT-29, 1 μM
Protocol: The expressions of p21 gene and proteins were examined following treatment with compound 3. Gene expression of p21 in HT-29 cells treated with 1 μM compound 3 was determined at the indicated times as follows. Total RNA was extracted and gene expression level was determined by RT-PCR (FIG. 42A). The level of p21 protein in total cell lysate was measured by ELISA (FIG. 42B) as follows. HT-29 cells were treated with 1 μM compound 3 with and without 20 μM MG-132 (proteasome inhibitor) for indicated time.

In the case of `Cc1[nH]c2ccccc2c1-c1nc2c3cccnc3c3ncccc3c2[nH]1` [Compound 3], the GI50 [1] is reported as 30 nM, the “p21 expression in tumour xenografts” value (p21) is reported as “induced the expression of p21” and the “KLF4 binding to Cyclin D1 promoter” value (KLF4) is reported as “Increased KLF4”. For the same compound, the “cell growth inhibition after knock-down of KLF4 gene by siRNA” value (HT-29 cells) was “loss of compound 3-mediated cell growth inhibition”, the “Zinquin fluorescence (free zinc ions)” value [2] was “Dose-dependent decrease in Zinquin fluorescence” and the “DNA-binding activity of MTF-1” value (MTF-1; HT-29 cells treated for 1 to 4 hr) was “Significant decrease in MTF-1 activity”. The “zinc-dependent MTF-1 DNA-binding activity” value (MTF-1; HT-29 treated with 1 μM for 4 hr, versus ZnCl2 positive control) was “zinc-dependent MTF-1 activity was not increased”, the “DNA-binding activity of zinc-activated MTF-1” value (MTF-1; nuclear extract of zinc-treated HT-29 cells treated in vitro) was “Inactivation of MTF-1 DNA-binding” and the p21 protein level (p21 protein; with 20 μM MG-132 (proteasome inhibitor)) was “increased p21 protein level was detected”. For the same compound, the p21 protein expression (p21 protein; without MG-132) was “comparable increase in p21 protein expression was not detected”.
